Results from ChEMBL document CHEMBL1137785, “Discovery of geranylgeranyltransferase-I inhibitors with novel scaffolds by the means of quantitative structure-activity relationship modeling, virtual screening, and experimental validation” (J Med Chem, 2009).

Assay: Displacement of [3H]GGpp from GGTase1 expressed in Sf9 cells

## Cc1ccc(C(CC(N)=O)NC(=O)CCCOc2c(CCCO)c(-c3cccnc3)nn2-c2ccc(Cl)c(Cl)c2)cc1 (stereo not given)
  pIC50: 7.17

## NC(=O)CC(NC(=O)CCCOc1cc(-c2cccnc2)nn1-c1ccc(Cl)c(Cl)c1)c1ccc(-c2ccccc2)cc1 (stereo not given)
  pIC50: 6.21

## O=C(O)C[C@H](Cc1c[nH]c2ccccc12)NC(=O)Cn1c(=O)[nH]c2ccccc2c1=O
  IC50: > 100 µM

## CSCCCc1c(-c2cccnc2)nn(-c2ccc(Cl)c(Cl)c2)c1OCCCC(=O)NC(CC(N)=O)c1ccc(C)cc1 (stereo not given)
  pIC50: 7.55

## Cc1ccc(CN(CC(N)=O)C(=O)CCCCc2cc(-c3cccnc3)nn2-c2ccc(Cl)c(Cl)c2)cc1
  pIC50: 4.53

## Cc1ccc(C(CC(N)=O)NC(=O)CCNCc2cc(-c3cccnc3)nn2-c2ccc(Cl)c(Cl)c2)cc1 (stereo not given)
  pIC50: 6.35

## Cc1ccc(C(CO)NC(=O)c2ccc(-c3cc(-c4cccnc4)nn3-c3ccc(Cl)c(Cl)c3)s2)cc1 (stereo not given)
  pIC50: 5.11

## Cc1ccc(C(NC(N)=O)NC(=O)CCCOc2cc(-c3cccnc3)nn2-c2ccc(Cl)c(Cl)c2)cc1 (stereo not given)
  pIC50: 5.4

## Cc1ccc(C(NC(=O)CCCOc2cc(-c3cccnc3)nn2-c2ccc(Cl)c(Cl)c2)C(=N)N)cc1 (stereo not given)
  pIC50: 5.97

## CCCOc1ccc(-c2nn(-c3ccccc3)cc2/C=N/NC(=O)CNC(=O)c2cccc(Cl)c2)cc1
  pIC50: 4.02

## CC(C)c1ccc(N(CC(=O)NCc2ccccc2)C(=O)Cn2nnc(-c3ccc(Cl)cc3)n2)cc1
  pIC50: 4.19

## Cc1ccc(-c2cc(NCNCCCCS)ccc2C(=O)N[C@@H](CCC(C)C)C(=O)O)cc1
  pIC50: 6.68

## Cc1ccc(C(CC(N)=O)NC(=O)CC(=O)Nc2cc(-c3cccnc3)nn2-c2ccc(Cl)c(Cl)c2)cc1 (stereo not given)
  pIC50: 5.58

## CCCC(C(=O)NCc1ccccc1)N(Cc1ccccc1Cl)C(=O)Cn1nnc(-c2ccc(Cl)cc2)n1 (stereo not given)
  pIC50: 4.43

## Cc1ccc(C(CC(N)=O)NC(=O)CC(=O)CNc2cc(-c3cccnc3)nn2-c2ccc(Cl)c(Cl)c2)cc1 (stereo not given)
  pIC50: 5.23

## Cc1ccc(C(CC(N)=O)NC(=O)CC(=O)COc2cc(-c3cccnc3)nn2-c2ccc(Cl)c(Cl)c2)cc1 (stereo not given)
  pIC50: 4.86

## COc1ccc(OCc2nnc(SCC(=O)Nc3ccc(C(N)=O)cc3)n2CCc2ccccc2)cc1
  pIC50: 5.56

## CCc1ccc(OCc2nnc(SCC(=O)Nc3ccc(C(N)=O)cc3)n2C(C)c2ccccc2)cc1 (stereo not given)
read-out: IC50
  IC50: 43 µM

## CC[C@@H](C(=O)NCc1ccccc1)N(Cc1ccccc1Cl)C(=O)Cn1nnc(-c2ccc(C)cc2)n1
read-out: IC50
  IC50: 35 µM

## Cc1ccc(C(=O)N/C(=C/c2ccc(-c3ccc(Cl)c(Cl)c3)o2)C(=O)NCc2ccccc2)cc1
  pIC50: 3.84
read-out: IC50
  IC50: 8 µM

## NC(=O)CC(NC(=O)c1ccc(-c2cc(-c3cccnc3)nn2-c2ccc(Cl)c(Cl)c2)cc1)OCc1ccccc1 (stereo not given)
  pIC50: 5.63

## NC(=O)CC(NC(=O)CCCNc1cc(-c2cccnc2)nn1-c1ccc(Cl)c(Cl)c1)c1cccnc1 (stereo not given)
  pIC50: 6.32

## CCN(CCCC(=O)NC(CC(N)=O)c1ccc(C)cc1)c1cc(-c2cccnc2)nn1-c1ccc(Cl)c(Cl)c1 (stereo not given)
  pIC50: 5.7

## Cc1ccc(C(CC(N)=O)NC(=O)CC[C@H](C)Nc2cc(-c3cccnc3)nn2-c2ccc(Cl)c(Cl)c2)cc1 (stereo not given in full)
  pIC50: 6.23

## Cc1ccc(C(=O)N/C(=C\c2ccc(-c3ccc(Cl)c(Cl)c3)o2)C(=O)NCc2ccccc2)cc1
  pIC50: 5.56

## Cc1ccc(C(CC(N)=O)NC(=O)c2ccc(-c3cc(-c4cccnc4)nn3CCc3ccccc3)s2)cc1 (stereo not given)
  pIC50: 4.02

## CCCn1c(COc2ccc(C(C)Cc3ccccc3)cc2)nnc1SCC(=O)Nc1ccc(C(N)=O)cc1 (stereo not given)
  pIC50: 4.19

## Cc1ccc([C@@H](CC(N)=O)NC(=O)c2ccc(-c3cc(-c4cccnc4)nn3-c3ccc(Cl)c(Cl)c3)s2)cc1
  pIC50: 4.68

## Cc1ccc(C(CC(N)=O)NC(=O)C[C@H](O)COc2cc(-c3cccnc3)nn2-c2ccc(Cl)c(Cl)c2)cc1 (stereo not given in full)
  pIC50: 5.79

## Cc1ccc(C(CC(N)=O)NC(=O)CCCCOc2cc(-c3cccnc3)nn2-c2ccc(Cl)c(Cl)c2)cc1 (stereo not given)
  pIC50: 5.53

## Cc1ccc(C(NC(=O)c2ccc(-c3cc(-c4cccnc4)nn3-c3ccc(Cl)c(Cl)c3)s2)C(O)C(N)=O)cc1 (stereo not given)
  pIC50: 5.08

## Cc1ccc(CCN(CC(N)=O)C(=O)CCCOc2cc(-c3cccnc3)nn2-c2ccc(Cl)c(Cl)c2)cc1
  pIC50: 5.82

## NC(=O)CC(NC(=O)c1ccc(-c2cc(-c3cccnc3)nn2-c2ccc(Cl)c(Cl)c2)s1)OCc1ccccc1 (stereo not given)
  pIC50: 5.57

## Cc1ccc([C@@H](CC(N)=O)NC(=O)c2ccc(-c3cc(-c4cccnc4)nn3-c3ccc(Cl)c(Cl)c3)cc2)cc1
  pIC50: 3.84

## CCN(C(=O)CCCOc1cc(-c2cccnc2)nn1-c1ccc(Cl)c(Cl)c1)C(CC(N)=O)c1ccc(C)cc1 (stereo not given)
  pIC50: 6.27

## Cc1ccc(C(CC(N)=O)NC(=O)[C@H]2C[C@H](c3cc(-c4cccnc4)nn3-c3ccc(Cl)c(Cl)c3)C2(C)C)cc1 (stereo not given in full)
  pIC50: 5.94

## Cc1ccc(C(CC(N)=O)NC(=O)CCCN(CCN2CCOCC2)c2cc(-c3cccnc3)nn2-c2ccc(Cl)c(Cl)c2)cc1 (stereo not given)
  pIC50: 5.09

## Cc1ccc(C(CC(N)=O)NC(=O)C2CCCN(Cc3cc(-c4cccnc4)nn3-c3ccc(Cl)c(Cl)c3)C2)cc1 (stereo not given)
  pIC50: 4.3

## COCCN(CCC(=O)NC(CC(N)=O)c1ccc(C)cc1)Cc1cc(-c2cccnc2)nn1-c1ccc(Cl)c(Cl)c1 (stereo not given)
  pIC50: 7

## Cc1ccc(C(CC(N)=O)NC(=O)c2ccc(-c3cc(-c4cccnc4)nn3-c3ccc(Cl)c(Cl)c3)s2)cc1 (stereo not given)
  pIC50: 4.35

## Cc1ccc(C(CC(N)=O)NC(=O)COc2cc(-c3cccnc3)nn2-c2ccc(Cl)c(Cl)c2)cc1 (stereo not given)
  pIC50: 4.43

## NC(=O)CN(CC1CCCCC1)C(=O)CCCOc1cc(-c2cccnc2)nn1-c1ccc(Cl)c(Cl)c1
  pIC50: 5.84

## Cc1ccc(-c2nn(-c3ccccc3)cc2/C=N/NC(=O)C(=O)Nc2cc(Cl)ccc2Cl)cc1
  pIC50: 4.43

## CCCC[C@H](NC(=O)c1ccc(NCNCCCCS)cc1-c1ccccc1)C(=O)O
  pIC50: 7.14

## Cc1ccc(C(CC(=O)O)NC(=O)c2ccc(-c3cc(-c4cccnc4)nn3-c3ccc(Cl)c(Cl)c3)s2)cc1 (stereo not given)
  pIC50: 5.73

## Cc1ccc(C(CC(N)=O)NC(=O)c2ccc(-c3cc(-c4cccnc4)nn3-c3ccc(Cl)c(Cl)c3)cc2)cc1 (stereo not given)
  pIC50: 5.82

## O=C(Cn1c(=O)n(Cc2c[nH]cn2)c(=O)c2ccccc21)N[C@@H](Cc1ccccc1)C(=O)O
  pIC50: 5.77

## O=C(O)CNC(=O)[C@H](Cc1c[nH]c2ccccc12)NC(=O)Cn1c(=O)[nH]c2ccccc2c1=O
  IC50: > 100 µM

## COc1ccccc1-c1nnc(SCC(=O)Nc2ccc(C(N)=O)cc2)n1CCc1ccccc1
  pIC50: 5.56
